Measurements taken from ChEMBL document CHEMBL4431352, “Structure-activity relationship of Garcinia xanthones analogues: Potent Hsp90 inhibitors with cytotoxicity and antiangiogenesis activity” (Bioorg Med Chem, 2016).

Target: Heat shock protein HSP 90-alpha (Homo sapiens, UniProt P07900)
Experiment: Inhibition of 6x-His tagged human recombinant full length Hsp90alpha ATPase preincubated for 0.5 hrs followed by ATP addition measured after 30 mins by HTRF assay

CC(C)=CCC12OC(C)(C)C3CC(C=C4C(=O)c5c(O)cccc5OC431)C2=O (stereo unspecified)
IC50: 15.5 µM

C/C(=C\CC12OCC3CC(C1=O)C1OC14C(=O)c1c(O)cccc1OC324)CC=O (stereo unspecified)
IC50: 36.6 µM

C=CCC12OCC3CC(C=C4C(=O)c5c(O)cccc5OC431)C2=O (stereo unspecified)
IC50: 8.52 µM

COc1cccc2c1C(=O)C1=CC3CC4COC(CC=C(C)C)(C3=O)C14O2 (stereo unspecified)
IC50: 54.7 µM

C=CCC12OCC3CC(C=C4C(=O)c5ccccc5OC431)C2=O (stereo unspecified)
IC50: 28 µM

C/C(=C\CC12OCC3CC(C1=O)C1OC14C(=O)c1c(O)cccc1OC324)CC(=O)O (stereo unspecified)
IC50: 43 µM

CC(C)=CCC12OC(C)(C)C3CC(C=C4C(=O)c5c(O)cc(O)cc5OC431)C2=O (stereo unspecified)
IC50: 22.4 µM

CC(C)=CCC12OC(C)(C)C3CC(C=C4C(=O)c5ccccc5OC431)C2=O (stereo unspecified)
IC50: 23.9 µM

COc1cccc2c1C(=O)C1=CC3CC4C(C)(C)OC(CC=C(C)C)(C3=O)C14O2 (stereo unspecified)
IC50: 76.8 µM

C/C(=C\CC12OCC3CC(C=C4C(=O)c5c(O)cccc5OC431)C2=O)CCl (stereo unspecified)
IC50: 6.2 µM

CC(C)=CCC12OCC3CC(C=C4C(=O)c5c(O)cccc5OC431)C2=O (stereo unspecified)
IC50: 14.3 µM
